“Also recorded” adds a separate entry of the source. Like-named read-outs stand apart in the source and are kept apart here.
Key:
IRAK4 = experiment: In vitro IRAK4 degradation in monkey PBMCs; type: cell-based
[1] = test system: imiquimod psoriasis model; experiment: Imiquimod psoriasis model (TLR 7/8-dependent); type: in vivo, murine
[2] = In vivo pharmacokinetic studies in rats, dogs and monkeys
P-glycoprotein (P-gp) = P-glycoprotein (P-gp) (Homo sapiens, UniProt P08183); experiment: P-gp substrate identification in vitro; type: in vitro ADME
P-glycoprotein (P-gp), sequence (P08183 whole entry): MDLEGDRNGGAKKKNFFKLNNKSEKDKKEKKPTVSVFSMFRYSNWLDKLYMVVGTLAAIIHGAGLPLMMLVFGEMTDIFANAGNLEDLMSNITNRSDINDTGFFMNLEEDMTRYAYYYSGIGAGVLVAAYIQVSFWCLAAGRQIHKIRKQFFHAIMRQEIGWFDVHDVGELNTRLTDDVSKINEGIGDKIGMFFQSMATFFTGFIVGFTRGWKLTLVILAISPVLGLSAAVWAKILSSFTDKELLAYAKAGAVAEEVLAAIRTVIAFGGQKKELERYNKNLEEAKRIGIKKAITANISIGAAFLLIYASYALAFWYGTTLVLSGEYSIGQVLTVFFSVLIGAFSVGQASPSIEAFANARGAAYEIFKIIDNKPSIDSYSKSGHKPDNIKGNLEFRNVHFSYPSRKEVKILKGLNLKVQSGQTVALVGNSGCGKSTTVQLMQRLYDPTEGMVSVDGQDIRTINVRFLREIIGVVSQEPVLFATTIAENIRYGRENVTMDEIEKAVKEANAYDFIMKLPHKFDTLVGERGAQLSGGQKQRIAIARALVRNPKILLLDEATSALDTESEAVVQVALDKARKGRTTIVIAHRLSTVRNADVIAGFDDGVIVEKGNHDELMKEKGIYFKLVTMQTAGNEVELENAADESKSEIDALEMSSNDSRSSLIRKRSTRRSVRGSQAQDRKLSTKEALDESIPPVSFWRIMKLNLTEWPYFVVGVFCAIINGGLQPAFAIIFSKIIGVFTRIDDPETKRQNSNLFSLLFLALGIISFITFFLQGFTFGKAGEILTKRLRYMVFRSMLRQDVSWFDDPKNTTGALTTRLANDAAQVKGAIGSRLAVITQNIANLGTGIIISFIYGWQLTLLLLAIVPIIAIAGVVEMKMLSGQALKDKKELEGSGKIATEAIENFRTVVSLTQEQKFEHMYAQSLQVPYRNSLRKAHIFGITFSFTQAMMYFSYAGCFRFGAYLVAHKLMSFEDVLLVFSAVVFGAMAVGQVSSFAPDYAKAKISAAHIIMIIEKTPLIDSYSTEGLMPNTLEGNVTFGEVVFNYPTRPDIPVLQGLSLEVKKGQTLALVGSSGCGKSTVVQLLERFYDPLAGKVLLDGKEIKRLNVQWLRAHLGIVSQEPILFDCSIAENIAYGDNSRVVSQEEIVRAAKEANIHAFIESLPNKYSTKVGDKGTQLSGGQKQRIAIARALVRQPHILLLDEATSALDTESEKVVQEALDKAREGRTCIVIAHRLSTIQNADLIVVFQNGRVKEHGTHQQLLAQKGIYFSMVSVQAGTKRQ

[3] = Red blood cell partitioning; type: in vitro ADME
cytochrome P450 (CYP) = experiment: In vitro and in vivo metabolism studies; type: in vitro ADME
CYP3A4 = CYP3A4 (Homo sapiens, UniProt P08684); experiment: In vitro drug-drug interaction study, CYP3A4; type: in vitro ADME
CYP3A4, sequence (P08684 whole entry): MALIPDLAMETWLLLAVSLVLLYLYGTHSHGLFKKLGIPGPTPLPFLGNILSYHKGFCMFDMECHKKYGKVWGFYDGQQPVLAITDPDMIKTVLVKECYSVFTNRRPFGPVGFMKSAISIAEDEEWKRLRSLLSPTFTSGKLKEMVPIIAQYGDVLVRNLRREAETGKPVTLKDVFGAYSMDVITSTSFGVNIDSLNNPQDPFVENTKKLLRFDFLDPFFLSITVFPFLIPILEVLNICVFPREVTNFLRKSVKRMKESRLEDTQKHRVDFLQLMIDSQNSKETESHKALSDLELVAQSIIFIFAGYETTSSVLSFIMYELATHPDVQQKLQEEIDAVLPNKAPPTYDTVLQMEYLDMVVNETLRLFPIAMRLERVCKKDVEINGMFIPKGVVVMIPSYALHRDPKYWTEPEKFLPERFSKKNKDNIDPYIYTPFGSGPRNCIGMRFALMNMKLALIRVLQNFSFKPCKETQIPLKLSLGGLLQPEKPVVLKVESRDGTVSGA

[4] = Phase 1 SAD safety and tolerability; type: in vivo, human
Protocol: The safety data up to 24-hours post-dose for these sentinel HVs will be reviewed by the Investigator to ensure acceptable tolerability before commencing administration of the investigational product to the remaining HVs in the cohort. Sequential dosing of HVs within a cohort will be staggered so that there will be at least a gap of 10 minutes between dosing of individual HVs. After the completion of each dose level, the blinded interim PK data through Day 5 and safety data through Day 14 will be reviewed by the SRC before proceeding to the next dose level. Each subsequent dose administration will be performed, if in the judgment of the Investigator and Safety Physician, the results of the safety analyses of the preceding dose administration are satisfactory.
(§1) All data will be fully listed.

[5] = Phase 1 MAD plasma pharmacokinetics; type: in vivo, human; settings: for Cmax at 14 days / concentration at 24 h / Tmax at 14 days: human, plasma, oral, steady-state (Day 14); for Cmax at 14 days / concentration at 24 h: geometric mean (% CV); for concentration at 24 h: read-out: Ctrough; for Tmax at 14 days: median (range)
Excerpt: The selection of Compound A doses will be guided by the safety, tolerability, and PK data in humans from the SAD portion of the study. […] Increasing dose levels in subsequent MAD cohorts will be identified based on the safety and PK observed in the previous SAD and MAD cohorts. Dose escalation between each MAD cohort will not exceed 100%.
However, the dosing interval and the duration of dosing may change following review of the safety, PK, and PD data from Part A. […]

[6] = Phase 1 MAD Compound A concentration in skin; type: in vivo; settings: human, oral, Day 14, once daily dosing, read-out: Ctrough (pre-dose) levels in skin relative to plasma
[7] = Phase 1 MAD safety and tolerability; type: in vivo, human; settings: multiple daily doses over 14 days up to 200 mg (MAD 4)
Excerpt: Part B: Part B is a double-blind, randomized, placebo-controlled, MAD, sequential group study in 48 adult HVs, divided in 4 cohorts of 12 adult HVs in each cohort. One or more additional cohorts may be added, as needed.
as §1

[8] = blinded SAD safety, per Investigator assessment

## Cn1c(=O)n([C@@H]2CCC(=O)NC2=O)c2cccc(C#CCOC3CCN(C[C@H]4CC[C@H](n5cc(NC(=O)c6cnn7ccc(N8C[C@H]9C[C@@H]8CO9)nc67)c(C(F)F)n5)CC4)CC3)c21 [Compound A, 5-((1R,4R)-2-oxa-5-azabicyclo[2.2.1]heptan-5-yl)-N-(3-(difluoromethyl)-1-((1r,4R)-4-((4-((3-(1-(2,6-dioxopiperidin-3-yl)-3-methyl-2-oxo-2,3-dihydro-1H-benzo[d]imidazol-4-yl)prop-2-yn-1-yl)oxy)piperidin-1-yl)methyl)cyclohexyl)-1H-pyrazol-4-yl)pyrazolo[1,5-a]pyrimidine-3-carboxamide]
IRAK4
  DC50: […]
[1]; mouse, in vivo
  Degradation of IRAK4 in the spleen and skin: dose-dependent degradation
  Skin thickness: reduction in skin thickness
[1]; p<0.0001
  IL-1β in the skin: significant reduction
[1]; p<0.05, 300 mg/kg only
  IL-6 in the skin: significant reduction
[2]
  Bioavailability: low to moderate
  Clearance: moderate to high
  Terminal half-life: moderate
  Volume of distribution at steady state: high
P-glycoprotein (P-gp)
  P-gp substrate: substrate
[3]
  Partitioning into red blood cells: did not significantly partition into red blood cells
Cytochrome P450 (CYP)
  Primary metabolizing enzyme: primarily metabolized by CYP3A4
Cytochrome P450 (CYP); in vitro and in vivo
  Metabolic pathway: oxidative metabolism via cytochrome P450 (CYP)
CYP3A4
  Inhibition of CYP3A4: potential time dependent inhibition
[4]; SAD
  ECG changes: No significant ECG changes
  QTcF prolongation: no clinically significant QTcF prolongation
  Serious adverse events: no serious adverse events; also recorded: No SAEs
[4]; SAD 5, n=1, resolution ~Day 21
  AST elevation: 3.8 × ULN
[4]; SAD 5, n=1, slow resolution to baseline
  ALT elevation: 2.5 × ULN
[4]; [8]
  Study treatment related AEs, Diarrhea, #AEs: 2
  Study treatment related AEs, Diarrhea, (subjects): (2)
  Study treatment related AEs, Headache, #AEs: 5
  Study treatment related AEs, Headache, (subjects): (4)
  Study treatment related AEs, Nausea, #AEs: 3
  Study treatment related AEs, Nausea, (subjects): (3)
  Study treatment related AEs, Vomiting, #AEs: 2
[4]; single doses, SAD
  Safety and tolerability: safe and well-tolerated
[5]; MAD, once daily dosing
  Day of dosing by which steady-state was reached: ≤ 7 days
[5]; 25 mg QD
  Cmax at 14 days: 8.2 ng/mL
  concentration at 24 h: 5.03 ng/mL
[5]; 50 mg QD
  Cmax at 14 days: 12 ng/mL
  concentration at 24 h: 7.28 ng/mL
[5]; 100 mg QD
  Cmax at 14 days: 16.1 ng/mL
  concentration at 24 h: 9.81 ng/mL
[5]; 200 mg QD
  Cmax at 14 days: 25.2 ng/mL
  concentration at 24 h: 18.8 ng/mL
[6]
  Kp at 14 day: […]
[7]
  Safety and tolerability: safe and well-tolerated
